Test results published in the NIST ThermoML archive (doi:10.1021/je200145r).
Numbers after ± are expanded uncertainties.

Assay: wn = mass fraction of the nth substance listed
Conditions: 101 kPa, Liquid; for viscosity: Capillary tube (Ostwald / Ubbelohde) method

## C1COCCO1 [1,4-dioxane] + CO
298.15 K, w1 = 0.1
  viscosity: 0.55 ± 0.007 mPa·s
  mass density: 811.2 ± 0.8 kg/m3
298.15 K, w1 = 0.2
  viscosity: 0.554 ± 0.007 mPa·s
  mass density: 834.4 ± 0.8 kg/m3
298.15 K, w1 = 0.3
  viscosity: 0.565 ± 0.008 mPa·s
  mass density: 852.5 ± 0.7 kg/m3
298.15 K, w1 = 0.4
  viscosity: 0.587 ± 0.008 mPa·s
  mass density: 875.1 ± 0.7 kg/m3
303.15 K, w1 = 0.1
  viscosity: 0.511 ± 0.007 mPa·s
  mass density: 806.4 ± 0.8 kg/m3
303.15 K, w1 = 0.2
  viscosity: 0.517 ± 0.007 mPa·s
  mass density: 828.8 ± 0.8 kg/m3
303.15 K, w1 = 0.3
  viscosity: 0.527 ± 0.007 mPa·s
  mass density: 847.4 ± 0.7 kg/m3
303.15 K, w1 = 0.4
  viscosity: 0.548 ± 0.007 mPa·s
  mass density: 870.2 ± 0.7 kg/m3
308.15 K, w1 = 0.1
  viscosity: 0.473 ± 0.007 mPa·s
  mass density: 801.7 ± 0.8 kg/m3
308.15 K, w1 = 0.2
  viscosity: 0.482 ± 0.007 mPa·s
  mass density: 823.4 ± 0.8 kg/m3
308.15 K, w1 = 0.3
  viscosity: 0.489 ± 0.007 mPa·s
  mass density: 842.6 ± 0.8 kg/m3
308.15 K, w1 = 0.4
  viscosity: 0.508 ± 0.007 mPa·s
  mass density: 865.5 ± 0.7 kg/m3
313.15 K, w1 = 0.1
  viscosity: 0.432 ± 0.007 mPa·s
  mass density: 796.9 ± 0.8 kg/m3
313.15 K, w1 = 0.2
  viscosity: 0.448 ± 0.007 mPa·s
  mass density: 818.4 ± 0.8 kg/m3
313.15 K, w1 = 0.3
  viscosity: 0.452 ± 0.007 mPa·s
  mass density: 838 ± 0.8 kg/m3
313.15 K, w1 = 0.4
  viscosity: 0.467 ± 0.007 mPa·s
  mass density: 860.6 ± 0.7 kg/m3
